One assay addresses T1, B-Raf kinase (Homo sapiens, UniProt P15056).
T1 construct: GST (N); purchased Sigma
The experiment in a line: Biochemical assay for B-Raf.1 (coupled pyruvate kinase/lactate dehydrogenase). Conditions: read-out: BRAF.1 IC50. In a few lines:
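NADH oxidation followed at 340 nm in a pyruvate kinase/lactate dehydrogenase-coupled assay with 0.13 nM B-Raf, 30.1 nM MEK substrate, 1 mM ATP, pH 7.5 Tris buffer, 1% DMSO. Monitored 6 h at 30 °C; rate taken from 4–5 h. IC50 from four-parameter sigmoidal fit.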

The target in the next assay is T2, A-Raf kinase (Homo sapiens, UniProt P10398, Y301D/Y302D).
T2 construct: purchased Sigma
As to the kind of experiment: Biochemical assay for A-Raf.1 (coupled pyruvate kinase/lactate dehydrogenase). The note with it: read-out: ARAF.1 IC50. In a few lines: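 A-Raf (5.55 nM) phosphorylating 30.1 nM MEK with 1 mM ATP was monitored by pyruvate kinase/lactate dehydrogenase-coupled NADH oxidation at 340 nm for 6 h at 30° C, in pH 7.5 Tris buffer with 15 mM MgCl2, 1% DMSO. Rates from 4–5 h gave percent inhibition; IC50 by four-parameter fit.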

The target in the next assay is T3, C-Raf kinase (Homo sapiens, UniProt P04049, Y340D/Y341D).
T3 construct: Y340D,; GST (N); purchased Sigma
As to the kind of experiment: Biochemical assay for C-Raf.1 (coupled pyruvate kinase/lactate dehydrogenase). Conditions: read-out: CRAF.1 IC50. In a few lines:
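C-Raf (0.43 nM) with MEK 30.1 nM and 1 mM ATP in Tris pH 7.5/MgCl2 buffer, activity coupled via PK/LDH to NADH oxidation (A340), 6 h at 30° C. Rates from 4–5 h window converted to % inhibition versus controls; IC50 by four-parameter fit, 1% DMSO.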

Another assay addresses T4, B-Raf (V600E) kinase (Homo sapiens, UniProt P15056, V600E).
T4 construct: B-Raf (V600E) residues 416-766 with a; GST (N); purchased SignalChem
The experiment in a line: Biochemical assay for B-Raf (V600E).1 (coupled pyruvate kinase/lactate dehydrogenase). Conditions: read-out: BRAF V600E.1 IC50. In a few lines:
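0.03 nM B-Raf(V600E) phosphorylating 30.1 nM MEK at 1 mM ATP, pH 7.5, coupled to PK/LDH, with NADH oxidation followed at 340 nm for 6 h at 30 °C. Rates taken from the 3-4 h window. IC50 from a four-parameter fit of percent inhibition.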

A further assay concerns Miapaca-2 cells. The experiment in a line: MiaPaca-2 cell proliferation assay (1), resazurin, 96-well. The format is cell-based. The note with it: Homo sapiens, MIA PaCa-2, inhibition of cell proliferation. The method, then: MiaPaca-2 Cell Proliferation Assay (1)
Miapaca-2 cells (catalog #CRL-1420) are obtained from the American Type Culture Collect (ATTC, Manassas, VA). Briefly, cells were grown in DMEM supplemented with 10% characterized fetal bovine serum (Invitrogen, Carlsbad, CA), 2.5% New Zealand sourced horse serum and 1% Penicillin/Streptomycin/L-Glutamine at 37° C., 5% CO2, and 95% humidity. Cells are expanded until reaching 70-95% confluency at which point they are subcultured or harvested for assay use. A serial dilution of test compound is dispensed into a 96-well black clear bottom plate in triplicate. Three thousand cells are added per well in 200 μL complete growth medium in the 96-well plate. Plates are incubated for 67-72 hours at 37° C., 5% CO2, and 95% humidity. At the end of the incubation, 40 μL of a 440 μM solution of resazurin (Sigma, St. Louis, MO) in PBS is added to each well of the plate and plates are incubated for an additional 5-6 hours at 37° C., 5% CO2, and 95% humidity. Plates are read on a Synergy2 or equivalent reader (Biotek, Winooski VT) using an excitation of 540 nm and an emission of 600 nm. Data is analyzed using Prism software (GraphPad, San Diego, CA) to calculate IC50 values.

T1 sequence (P15056 416-766): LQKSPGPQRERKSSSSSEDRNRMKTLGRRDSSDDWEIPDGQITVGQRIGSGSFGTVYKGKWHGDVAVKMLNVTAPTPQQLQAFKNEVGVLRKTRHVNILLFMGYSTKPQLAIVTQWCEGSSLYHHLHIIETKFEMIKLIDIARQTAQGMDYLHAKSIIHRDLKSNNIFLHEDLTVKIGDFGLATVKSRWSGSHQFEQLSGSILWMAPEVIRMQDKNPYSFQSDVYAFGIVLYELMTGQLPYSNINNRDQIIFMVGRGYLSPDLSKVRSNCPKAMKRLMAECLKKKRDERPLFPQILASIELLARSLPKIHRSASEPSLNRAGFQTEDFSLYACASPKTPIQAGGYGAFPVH
T2 sequence (P10398 with tags, fused parts or gaps Y301D/Y302D): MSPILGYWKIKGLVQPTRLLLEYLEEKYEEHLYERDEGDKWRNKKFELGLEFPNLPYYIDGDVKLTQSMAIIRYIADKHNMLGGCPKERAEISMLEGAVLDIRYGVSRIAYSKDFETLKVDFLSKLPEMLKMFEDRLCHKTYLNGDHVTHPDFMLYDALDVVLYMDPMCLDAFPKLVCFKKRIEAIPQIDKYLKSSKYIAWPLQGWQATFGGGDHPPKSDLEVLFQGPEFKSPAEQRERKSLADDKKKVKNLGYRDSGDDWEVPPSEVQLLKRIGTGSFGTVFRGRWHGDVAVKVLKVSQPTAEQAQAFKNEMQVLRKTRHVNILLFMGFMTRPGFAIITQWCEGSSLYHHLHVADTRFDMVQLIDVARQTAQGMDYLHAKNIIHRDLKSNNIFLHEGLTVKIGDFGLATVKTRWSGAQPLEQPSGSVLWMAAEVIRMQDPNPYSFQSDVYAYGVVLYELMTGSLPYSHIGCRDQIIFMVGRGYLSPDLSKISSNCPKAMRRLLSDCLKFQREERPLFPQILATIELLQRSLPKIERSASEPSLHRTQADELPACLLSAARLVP
T3 sequence (P04049 307-648 Y340D/Y341D): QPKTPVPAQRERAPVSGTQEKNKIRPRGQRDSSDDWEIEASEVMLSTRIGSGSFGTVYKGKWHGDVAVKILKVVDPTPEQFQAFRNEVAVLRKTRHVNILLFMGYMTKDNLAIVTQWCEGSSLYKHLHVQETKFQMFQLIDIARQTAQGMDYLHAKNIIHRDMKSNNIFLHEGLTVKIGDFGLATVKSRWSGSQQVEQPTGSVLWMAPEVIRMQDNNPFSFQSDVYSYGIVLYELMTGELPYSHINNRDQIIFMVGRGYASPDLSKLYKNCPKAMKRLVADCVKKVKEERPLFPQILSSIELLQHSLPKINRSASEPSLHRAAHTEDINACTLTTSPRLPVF
T4 sequence (P15056 416-766 V600E): as the sequence (P15056 416-766) above, with V185E counted along it

The IC50 is the concentration needed to halve the response being measured. With `Cc1ccc(NC(=O)Nc2cnn(C(C)(C)C)c2)cc1-c1cc(OCCO)nc(N2CCOCC2)c1` [Example 44], the IC50 was 100 to 500 nM at B-Raf kinase; > 1000 nM at A-Raf kinase; 100 to 500 nM at C-Raf kinase; ≤ 100 nM at B-Raf (V600E) kinase; 1000 to 10000 nM with Miapaca-2 cells.
For `Cc1ccc(NC(=O)Nc2cnn(CC(F)(F)F)c2)cc1-c1cc(OCCO)nc(N2CCOCC2)c1` [Example 45], the IC50 at B-Raf kinase was > 1000 nM; at A-Raf kinase it was > 1000 nM; at C-Raf kinase, 100 to 500 nM; at B-Raf (V600E) kinase, ≤ 100 nM; in the assay with Miapaca-2 cells, 1000 to 10000 nM.

Values taken from patent publication US20230357179A1, “RAF KINASE INHIBITORS AND METHODS OF USE THEREOF” (Deciphera Pharmaceuticals, LLC, priority 2021, published 2023).
